Measured values as given in patent publication US20050038058A1, “Novel compounds and methods for therapy” (Institute of Organic Chemistry and Biochemistry, priority 2001, published 2005).
≈ marks a conversion by molar mass, not a printed value.

Key:
HIV-1(IIIB) = assay: HIV-1(IIIB)-induced cytopathicity in CEM cell cultures; assay type: cell-based; settings: for EC50: Human immunodeficiency virus 1, CCRF-CEM, read-out: EC50 HIV-1 (CEM)
Excerpt: Viruses. The origins of MSV, HIV type 1 (HIV-1) (strain IIIB and Ba-L), HIV-2 (strain ROD) and FIV (strain Petaluma) have been described previously (Balzarini et al., AIDS 5: 21-28, 1991; De Clercq et al., Proc. Soc. Exp. Biol. Med. 137:590-594, 1971; Egberink et al., Proc. Natl. Acad. Sci. 87:3087-3091, 1990; Hartmann et al., Antiviral Chem. Chemother. 5:13-19, 1994; Popovic et al., Science 224:497-500, 1984). HIV-1(IIIB) and HIV-2(ROD) stocks were obtained from supernatants of virus-infected MT-4 cell cultures. HIV-1BaL was expanded in human primary M/M, whose supernatants were collected, filtered and stored at −80° C. before use. Characteristics of viral stocks used for this study were 2.1×10^8 HIV-RNA genomes/ml (corresponding to 35 ng of p24 antigen) and 5,000 tissue culture infectious doses 50% per ml (TCID50/ml) as assessed by virus titration in other primary M/M cultures. The isolation and characterization of the clinical HIV-1 isolates L1S, L6S and L6S/PMEA has been reported (Thormar et al., Proc. Natl. Acad. Sci. USA 93:3283-3287, 1995; Van Laethem et al., AIDS 15:553-561, 2001). […] HIV-1/L6S/PMEA is the clinical isolate HIV-1/L6S that has been isolated after culturing the virus for 11 passages in the presence of increasing concentrations of PMEA (adefovir).
In vitro antiviral assays. The activity against HIV-1- and HIV-2-induced cytopathicity was examined in MT-4 cell cultures at day 5 post infection and based on the determination of cell viability by trypan blue dye staining or in CEM cell cultures at day 4 to 5 post infection and based on the microscopical examination of virus-induced giant cell formation. HIV-1 and HIV-2 were added at 100 CCID50 to the cell cultures.

[1] = Inhibition of CEM cell growth (cytostatic activity); assay type: cell-based; settings: human, CEM cells, 50% cytostatic concentration, CEM cell proliferation; Table 1; read-out: CC50 (CEM)
Protocol: (§1) Cytostatic and antimetabolic effect of acyclic nucleoside phosphonates in vitro. The assays to examine the inhibition of CEM cell growth by the test compounds have been described previously (Balzarini et al., AIDS 5:21-28, 1991). The 50% cytostatic concentration (CC50) was defined as the concentration of compound that reduced the number of living cells by 50% . To measure MT-4 cell toxicity of the test compounds, 5×10^4 MT-4 cells were incubated in the wells of 96-well microplates in the presence or absence of different concentrations of the test compounds for 5 days at 37° C. The CC50 was then calculated from the number of living cells counted under a microscope by the trypan blue exclusion method.

CEM cells = assay: as above; assay type: cell-based; settings: 50% cytostatic concentration, CEM cell proliferation; Table 1
Protocol: as §1

VZV TK + YS = assay: Antiviral activity, VZV TK+ YS, Table 1a; assay type: cell-based; settings: Human alphaherpesvirus 3
HSV-1 TK- VMW 1837 = assay: Antiviral activity, HSV-1 TK- VMW 1837, Table 1a; assay type: cell-based; settings: Human alphaherpesvirus 1, read-out: Antiviral Activity EC50 HSV-1 TK- VMW 1837
CMV AD-169 = assay: Antiviral activity, CMV AD-169, Table 1a; assay type: cell-based; settings: Human betaherpesvirus 5, AD169
CMV Davis = assay: Antiviral activity, CMV Davis, Table 1a; assay type: cell-based; settings: Human betaherpesvirus 5
HSV-2 (G) = assay: Antiviral activity, HSV-2 (G), Table 1a; assay type: cell-based; settings: Human alphaherpesvirus 2
VZV TK − 07/1 = assay: Antiviral activity, VZV TK- 07/1, Table 1a; assay type: cell-based; settings: Human alphaherpesvirus 3, read-out: Antiviral Activity EC50 VZV TK − 07/1
VZV TK + OKA = assay: Antiviral activity, VZV TK+ OKA, Table 1a; assay type: cell-based; settings: Human alphaherpesvirus 3, read-out: Antiviral Activity EC50 VZV TK + OKA
HSV-1 (KOS) = assay: Antiviral activity, HSV-1 (KOS), Table 1a; assay type: cell-based; settings: Human alphaherpesvirus 1
HIV-2 = assay: Antiviral activity, HIV-2, Table 1a; assay type: cell-based; settings: Human immunodeficiency virus 2
VZV TK − YS/R = assay: Antiviral activity, VZV TK- YS/R, Table 1a; assay type: cell-based; settings: Human alphaherpesvirus 3, read-out: Antiviral Activity EC50 VZV TK − YS/R
MSV = assay: Antiviral activity, MSV, Table 1a; assay type: cell-based
HIV-1 = assay: microbe, parasite or virus in culture; settings: Human immunodeficiency virus 1, read-out: Antiviral Activity EC50 HIV-1
[2] = HIV-1(IIIB)-induced cytopathicity in CEM cell cultures, Table 1

Row | SMILES | Antiretroviral (anti-HIV-1) activity in CEM cell cultures, in words (HIV-1(IIIB)) | EC50 (HIV-1(IIIB); [2]) | CC50 [1] | EC50 (VZV TK + YS) | EC50 (HSV-1 TK- VMW 1837) | EC50 (CMV AD-169) | EC50 (CMV Davis) | EC50 (HSV-2 (G)) | EC50 (VZV TK − 07/1) | EC50 (VZV TK + OKA) | EC50 (HSV-1 (KOS)) | EC50 (HIV-2) | EC50 (VZV TK − YS/R) | EC50 (MSV) | EC50 (HIV-1) | also measured
1 | Nc1cc(OCCOCP(=O)(O)O)ncn1 [Compound 3, 4-amino-6-[2-(phosphonomethoxy)ethoxy]pyrimidine] | complete annihilation of the antiretroviral activity | > 100 µg/mL | > 100 µg/mL |  |  |  |  |  |  |  |  |  |  |  |  | 
2 | Nc1nc(O)cc(SCCOCP(=O)(O)O)n1 [Compound 5, 2-amino-4-hydroxy-6-{[2-(phosphono-methoxy)ethyl]sulfanyl}pyrimidine] | completely inactive | > 100 µg/mL | > 100 µg/mL |  |  |  |  |  |  |  |  |  |  |  |  | 
3 | CN(C)c1cc(OCCOCP(=O)(O)O)nc(N)n1 [Compound 6, 2-amino-4-dimethylamino-6-[2-(phosphonomethoxy)-ethoxy]pyrimidine] | complete annihilation of the antiretroviral activity | > 100 µg/mL | > 100 µg/mL |  |  |  |  |  |  |  |  |  |  |  |  | 
4 | Nc1nc(NC2CC2)cc(OCCOCP(=O)(O)O)n1 [Compound 7, 2-amino-4-cyclopropylamino-6-[2-(phosphonomethoxy)ethoxy]pyrimi-dine] | complete annihilation of the antiretroviral activity |  |  |  |  |  |  |  |  |  |  |  |  |  |  | EC50 HIV-1 (CEM) (HIV-1(IIIB); [2]): >100 µg/mL; CC50 (CEM) (CEM cells): >100 µg/mL
5 | CSc1nc(N)cc(OCCOCP(=O)(O)O)n1 [Compound 8, 4-amino-2-methylsulfanyl-6-[2-(phosphonomethoxy)ethoxy]pyrimidine] | complete annihilation of the antiretroviral activity | > 100 µg/mL | > 100 µg/mL |  |  |  |  |  |  |  |  |  |  |  |  | 
6 | Cc1cc(OCCOCP(=O)(O)O)nc(N)n1 [Compound 9, 2-amino-4-methyl-6-[2-(phosphonomethoxy)ethoxy]pyrimidine] | complete annihilation of the antiretroviral activity | > 100 µg/mL | > 100 µg/mL |  |  |  |  |  |  |  |  |  |  |  |  | 
7 | Nc1cc(OCCOCP(=O)(O)O)nc(N)n1 [Compound H-3404] |  |  |  | 1.1 µg/mL | 9.6 µg/mL (≈ 36.3 µM) | > 50 µg/mL | > 50 µg/mL | 24 µg/mL (≈ 90.8 µM) | 2.5 µg/mL (≈ 9.46 µM) | 1.2 µg/mL | 6.5 µg/mL (≈ 24.6 µM) | 0.43 ± 0.32 µg/mL (≈ 1.63 µM) | 1.6 µg/mL (≈ 6.06 µM) | 0.035 ± 0.002 µg/mL (≈ 0.132 µM) | 0.8 µg/mL (≈ 3.03 µM) | 
8 | Nc1cc(SCCOCP(=O)(O)O)nc(N)n1 [Compound H-3408] |  |  |  | 7 µg/mL | 48 µg/mL (≈ 171 µM) | > 50 µg/mL | > 50 µg/mL | ≥ 80 µg/mL | 20 µg/mL (≈ 71.4 µM) | 7.5 µg/mL | 29 µg/mL (≈ 103 µM) | 3 ± 1.4 µg/mL (≈ 10.7 µM) | 15 µg/mL (≈ 53.5 µM) | 1.7 µg/mL (≈ 6.07 µM) | 5.5 ± 2.1 µg/mL (≈ 19.6 µM) | 
9 | Nc1cc(OCCOCP(=O)(O)O)ncn1 [Compound H-3418] |  |  |  | > 50 µg/mL | > 16 µg/mL | > 50 µg/mL | > 50 µg/mL | > 16 µg/mL | > 50 µg/mL | > 50 µg/mL | > 16 µg/mL | > 100 µg/mL | > 50 µg/mL | 12.6 ± 7.6 µg/mL (≈ 50.6 µM) | > 100 µg/mL | 
10 | CN(C)c1cc(OCCOCP(=O)(O)O)nc(N)n1 [Compound H-3427] |  |  |  | > 50 µg/mL | > 400 µg/mL | > 50 µg/mL | > 50 µg/mL | > 400 µg/mL | > 50 µg/mL | > 50 µg/mL | > 400 µg/mL | > 100 µg/mL | > 50 µg/mL | 139 ± 11 µg/mL (≈ 476 µM) | > 100 µg/mL | 
11 | Nc1nc(NC2CC2)cc(OCCOCP(=O)(O)O)n1 [Compound H-3435] |  |  |  | > 50 µg/mL |  | > 50 µg/mL | > 50 µg/mL | > 80 µg/mL | > 50 µg/mL | > 20 µg/mL | 240 µg/mL (≈ 789 µM) | > 100 µg/mL | > 50 µg/mL | > 40 µg/mL | > 100 µg/mL | 
12 | Nc1nc(OCCOCP(=O)(O)O)cc(OCCOCP(=O)(O)O)n1 [Compound H-3444] |  |  |  | > 50 µg/mL |  | > 50 µg/mL | > 50 µg/mL | > 400 µg/mL | > 50 µg/mL | > 50 µg/mL | 240 µg/mL (≈ 595 µM) | 80 ± 34.6 µg/mL (≈ 198 µM) | > 50 µg/mL | 4.26 ± 0.75 µg/mL (≈ 10.6 µM) | 56.7 ± 37.9 µg/mL (≈ 141 µM) | 
13 | Nc1nc(OCCOCP(=O)(O)O)cc(=O)n1CCOCP(=O)(O)O [Compound H-3445] |  |  |  | > 50 µg/mL | > 400 µg/mL | > 50 µg/mL | > 50 µg/mL | > 400 µg/mL | > 50 µg/mL | > 50 µg/mL | > 400 µg/mL | > 100 µg/mL | > 50 µg/mL | 107 ± 10 µg/mL (≈ 265 µM) | > 100 µg/mL | 
14 | Nc1nc(O)cc(OCCOCP(=O)(O)O)n1 [Compound H-3574] |  |  |  | 0.9 µg/mL |  | 14 µg/mL (≈ 52.8 µM) | 16 µg/mL (≈ 60.3 µM) | 9.6 µg/mL (≈ 36.2 µM) |  | 1.1 µg/mL | 9.6 µg/mL (≈ 36.2 µM) |  | 0.6 µg/mL (≈ 2.26 µM) | 0.08 µg/mL (≈ 0.302 µM) | > 0.8 µg/mL | 
15 | Nc1nc2c(ncn2CCOCP(=O)(O)O)c(=O)[nH]1 [PMEG, reference compound] |  |  |  |  |  |  |  |  |  |  |  |  |  |  |  | EC50 as such (HIV-1(IIIB); HIV-1 (IIIB) in CEM, no addition, Table 3): >0.05 µg/mL; EC50 upon addition of Ade (100 μM) (HIV-1(IIIB); HIV-1 (IIIB) in CEM, Ade 100 μM): >0.05 µg/mL; EC50 upon addition of Ado (400 μM) (HIV-1(IIIB); HIV-1 (IIIB) in CEM, Ado 400 μM): >0.05 µg/mL; EC50 upon addition of Guo (10 μM) (HIV-1(IIIB); HIV-1 (IIIB) in CEM, Guo 10 μM): >0.05 µg/mL; EC50 upon addition of dCyd (1 mM) (HIV-1(IIIB); HIV-1 (IIIB) in CEM, dCyd 1 mM): >0.25 µg/mL; EC50 upon addition of dThd (10 μM) (HIV-1(IIIB); HIV-1 (IIIB) in CEM, dThd 10 μM): >0.25 µg/mL
